For experiment [1], the system named is IL-8. In words: In vitro chemotaxis, inhibition v IL-8. It counts as cell-based, human. More on the design: concentration or dose not given beside the values. How it is done:
To determine whether an agent inhibits a chemokine-induced activity, such as macrophage recruitment, varying amounts of the agent are mixed with cells in the presence of a known chemoattractant. For example, a range of known concentrations of an agent, e.g., a chemokine peptide, is incubated with a defined number (e.g., 10^4-10^6) of human THP-1 monocyte cells in individual wells of the top compartment of a trans-well plate. Chemokine, at a concentration known to cause significant migration of THP-1 cells in the trans-well migration assay, is placed in the lower compartment of a trans-well plate. Cells are then incubated at 37° C. for a period sufficient to allow migration, e.g., 4 hours. After incubation, the cells are gently removed from the top of the filter with a pipette, 20 μl of 20 mM EDTA in simple PBS is added into each top well, and incubated for 20 minutes at 4° C. The filter is carefully flushed with media using a gentle flow, and removed. A standard curve consisting of a two-fold dilution series of THP-1 cells (in 29 μl) is placed to accurately quantify the number of cells that have migrated. Migrated cells are stained with 3 μl of MTT stock dye solution which is added directly into each well (5 mg/ml in RPMI-1640 without phenol red) (Sigma Chemical Co., St. Louis, Mo., USA) and incubated at 37° C. for 4 hours. The media is carefully aspirated from each well, and the converted dye is solubilized by 20 μl of DMSO. Absorbance of converted dye is measured at a wavelength of 595 nm using an ELISA plate reader. The number of migrated cells in each well is then determined by interpolation of the standard curve (see also Imai et al., J. Biol. Chem., 272:15036, 1997). Any method suitable for counting cells can be used, for example, counting with a hemocytometer, incubation of the cells with MTT (see above), or FACS analysis. A negative control assay is also performed, using TGFβ or another non-chemokine chemoattractant (e.g., IL1β or TNFα). To assess whether the agent is cytotoxic, the same concentrations of agent are incubated with THP-1 cells. Agents which 1) are not cytotoxic at levels which inhibit migration, 2) are ineffective at inhibiting the negative control-induced migration, and 3) reduce or inhibit chemokine-induced THP-1 migration, are agents which fall within the scope of the invention.

The subject of experiment [2] is MCP-1. In words: In vitro chemotaxis (trans-well migration) v MCP-1. It counts as cell-based, human. The method in brief:
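Human THP-1 monocytes (10^4-10^6) with agent at varying concentrations in upper trans-well chamber; IL-8 or MCP-1 in lower chamber at a migration-inducing concentration, 37° C for e.g. 4 hours. Migrated cells quantified by MTT (595 nm) against a THP-1 standard curve; cytotoxicity and non-chemokine chemoattractant controls run.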

pEC50: −log10 of the molar value. Bridge positions count the residues as written; N and C are the ends. Square brackets hold non-standard residues; d marks the D form. Peptide text beside a SMILES is read from it. * marks the point of attachment. Lauroyl = CCCCCCCCCCCC(=O)*; Octanoyl = CCCCCCCC(=O)*; dDap = NC[C@@H](N)C(=O)O; Dap = NC[C@H](N)C(=O)O; AEEA = NCCOCCOCC(=O)O; Aoc = NCCCCCCCC(=O)O

In general, pEC50 refers to −log10 of the EC50, conventionally taken in molar units.

With `CC[C@H](C)[C@@H]1NC(=O)[C@H](Cc2c[nH]c3ccccc23)NC(=O)[C@H](CCCCN)NC(=O)[C@H](CCC(N)=O)NC(=O)[C@H](CCCCN)NC(=O)[C@@H]2CCCN2C(=O)[C@H](CC(=O)O)NC(=O)[C@H](CC(C)C)NC(=O)[C@H](N)CSSC[C@@H](C(=O)N[C@@H](CN)C(N)=O)NC(=O)[C@H](CCC(N)=O)NC1=O` [Example 35, c(D-Cys-Leu-Asp-Pro-Lys-Gln-Lys-Trp-Ile-Gln-Cys)-Dap-NH2] (H-[dC]LDPKQKWIQC[Dap]-NH2; disulfide 1-11), the “v IL-8 inhibition (%)” value in experiment [1] is 91.9%. The negative-log EC50 (pEC50) in experiment [2] is 7.30.
The like results for `CC[C@@H](C)[C@H]1NC(=O)[C@@H](CCC(N)=O)NC(=O)[C@H](N)CSSC[C@H](C(=O)N[C@@H](CCC(=O)O)C(=O)NCCCCCCCC(=O)O)NC(=O)[C@@H](CC(C)C)NC(=O)[C@@H](CC(=O)O)NC(=O)[C@H]2CCCN2C(=O)[C@@H](CCCCN)NC(=O)[C@@H](CCC(N)=O)NC(=O)[C@@H](CCCCN)NC(=O)[C@@H](Cc2c[nH]c3ccccc23)NC1=O` [Example 145, c(D-Cys-D-Gln-D-Ile-D-Trp-D-Lys-D-Gln-D-Lys-D-Pro-D-Asp-D-Leu-D-Cys)-Glu-Aoc-OH] (H-[dC][dQ][dI][dW][dK][dQ][dK][dP][dD][dL][dC]E[Aoc]-OH; disulfide 1-11) were, in that order, 23.8% and 6.70.
The corresponding values for `CC[C@H](C)[C@@H]1NC(=O)[C@H](Cc2c[nH]c3ccccc23)NC(=O)[C@H](CCCCN)NC(=O)[C@H](CCC(N)=O)NC(=O)[C@H](CCCCN)NC(=O)[C@@H]2CCCN2C(=O)[C@H](CC(=O)O)NC(=O)[C@H](CC(C)C)NC(=O)[C@@H](NC(C)=O)CSSC[C@@H](C(N)=O)NC(=O)[C@@H](CCC(N)=O)NC1=O` [Example 24, Ac-c(Cys-Leu-Asp-Pro-Lys-Gln-Lys-Trp-Ile-D-Gln-Cys)-NH2] (Ac-CLDPKQKWI[dQ]C-NH2; disulfide 1-11) are 33.8% and 6.70.
The corresponding values for `CC[C@H](C)[C@@H]1NC(=O)[C@H](Cc2c[nH]c3ccccc23)NC(=O)[C@H](CCCCN)NC(=O)[C@H](CCC(N)=O)NC(=O)[C@H](CCCCN)NC(=O)[C@@H]2CCCN2C(=O)[C@H](CC(=O)O)NC(=O)[C@H](CC(C)C)NC(=O)[C@H](N)CSSC[C@@H](C(N)=O)NC(=O)[C@H](CCC(N)=O)NC1=O` [Example 39, c(D-Cys-Leu-Asp-Pro-Lys-Gln-Lys-Trp-Ile-Gln-Cys)-NH2] (H-[dC]LDPKQKWIQC-NH2; disulfide 1-11) are 3.8% and < 6.00.
Take `CC[C@H](C)[C@@H]1NC(=O)[C@H](Cc2c[nH]c3ccccc23)NC(=O)[C@H](CCCCN)NC(=O)[C@H](CCC(N)=O)NC(=O)[C@H](CCCCN)NC(=O)[C@@H]2CCCN2C(=O)[C@H](CC(=O)O)NC(=O)[C@@H](N)CSSC[C@@H](C(N)=O)NC(=O)[C@H](CCC(N)=O)NC1=O` [Example 42, c(Cys-Asp-Pro-Lys-Gln-Lys-Trp-Ile-Gln-Cys)-NH2] (H-CDPKQKWIQC-NH2; disulfide 1-10): the “v IL-8 inhibition (%)” value in experiment [1] is given as 94.4%. This compound also gave a pEC50 in experiment [2] of 7.60.
The corresponding values for `CC[C@H](C)[C@@H]1NC(=O)[C@H](Cc2c[nH]c3ccccc23)NC(=O)[C@H](CCCCN)NC(=O)[C@H](CCC(N)=O)NC(=O)[C@H](CCCCN)NC(=O)[C@@H]2CCCN2C(=O)[C@@H](NC(=O)[C@H](CC(=O)O)NC(=O)[C@@H](N)CC(C)C)CSSC[C@@H](C(N)=O)NC(=O)[C@H](CCC(N)=O)NC1=O` [Example 11, Leu-Asp-c(Cys-Pro-Lys-Gln-Lys-Trp-Ile-Gln-Cys)-NH2] (H-LDCPKQKWIQC-NH2; disulfide 3-11) are 38.1% and 6.48.
The like results for `CCCCCCCCCCCC(=O)NCCCC[C@H](N)C(=O)N[C@H](C(=O)N[C@H]1CSSC[C@@H](C(N)=O)NC(=O)[C@H](CCC(N)=O)NC(=O)[C@H]([C@@H](C)CC)NC(=O)[C@H](Cc2c[nH]c3ccccc23)NC(=O)[C@H](CCCCN)NC(=O)[C@H](CCC(N)=O)NC(=O)[C@H](CCCCN)NC(=O)[C@@H]2CCCN2C(=O)[C@H](CC(=O)O)NC(=O)[C@H](CC(C)C)NC1=O)[C@@H](C)CC` [Example 169, Lys(Nε-dodecanoyl)-Ile-c(Cys-Leu-Asp-Pro-Lys-Gln-Lys-Trp-Ile-Gln-Cys)-NH2] (H-K(Lauroyl)ICLDPKQKWIQC-NH2; disulfide 3-13) were, in that order, 7.7% and < 6.00.
The like results for `CCCCCCCC(=O)NCCCC[C@H](NC(=O)COCCOCCNC(=O)[C@H]1CSSC[C@@H](N)C(=O)N[C@H](CCC(N)=O)C(=O)N[C@H]([C@H](C)CC)C(=O)N[C@H](Cc2c[nH]c3ccccc23)C(=O)N[C@H](CCCCN)C(=O)N[C@H](CCC(N)=O)C(=O)N[C@H](CCCCN)C(=O)N2CCC[C@@H]2C(=O)N[C@H](CC(=O)O)C(=O)N[C@H](CC(C)C)C(=O)N1)C(=O)O` [Example 151, c(D-Cys-D-Gln-D-Ile-D-Trp-D-Lys-D-Gln-D-Lys-D-Pro-D-Asp-D-Leu-D-Cys)-Doc-Lys(Nε-octanoyl)-OH] (H-[dC][dQ][dI][dW][dK][dQ][dK][dP][dD][dL][dC][AEEA]K(Octanoyl)-OH; disulfide 1-11) were, in that order, 103.7% and 7.55.
For `CC[C@H](C)[C@@H]1NC(=O)[C@H](Cc2c[nH]c3ccccc23)NC(=O)[C@H](CCCCN)NC(=O)[C@H](CCC(N)=O)NC(=O)[C@@H](NC(=O)[C@H](CCCCN)NC(=O)[C@@H]2CCCN2C(=O)[C@@H](N)CC(=O)O)CSSC[C@@H](C(N)=O)NC(=O)[C@H](CCC(N)=O)NC1=O` [Example 41, Asp-Pro-Lys-c(Cys-Gln-Lys-Trp-Ile-Gln-Cys)-NH2] (H-DPKCQKWIQC-NH2; disulfide 4-10), the “v IL-8 inhibition (%)” value in experiment [1] was found to be 67.8%. In addition, in experiment [2], the pEC50 is 7.10.
Consider `CC[C@H](C)[C@@H]1NC(=O)[C@H](Cc2c[nH]c3ccccc23)NC(=O)[C@H](CCCCN)NC(=O)[C@H](CCC(N)=O)NC(=O)[C@H](CCCCN)NC(=O)[C@@H](NC(=O)[C@@H]2CCCN2C(=O)[C@@H](N)CC(=O)O)CSSC[C@@H](C(N)=O)NC(=O)[C@H](CCC(N)=O)NC1=O` [Example 40, Asp-Pro-c(Cys-Lys-Gln-Lys-Trp-Ile-Gln-Cys)-NH2] (H-DPCKQKWIQC-NH2; disulfide 3-10), for which, in experiment [1], the “v IL-8 inhibition (%)” value amounted to 113.5%. The same compound showed a pEC50 in experiment [2] of 8.15.
As to `CC[C@H](C)[C@@H]1NC(=O)[C@H](Cc2c[nH]c3ccccc23)NC(=O)[C@H](CCCCN)NC(=O)[C@H](CCC(N)=O)NC(=O)[C@H](CCCCN)NC(=O)[C@@H]2CCCN2C(=O)[C@H](CC(=O)O)NC(=O)[C@H](CC(C)C)NC(=O)[C@@H](NC(C)=O)CSSC[C@@H](C(=O)N[C@H](CN)C(N)=O)NC(=O)[C@H](CCC(N)=O)NC1=O` [Example 16, Ac-c(Cys-Leu-Asp-Pro-Lys-Gln-Lys-Trp-Ile-Gln-Cys)-D-Dap-NH2] (Ac-CLDPKQKWIQC[dDap]-NH2; disulfide 1-11), the “v IL-8 inhibition (%)” value in experiment [1] is reported as 19.8%. The compound further had a pEC50 in experiment [2] of 6.10.
The like results for `CCCCCCCC(=O)NCCCC[C@H](NC(=O)[C@@H](CCC(=O)O)NC(=O)[C@H](NC(=O)[C@H]1CSSC[C@@H](N)C(=O)N[C@H](CCC(N)=O)C(=O)N[C@H]([C@H](C)CC)C(=O)N[C@H](Cc2c[nH]c3ccccc23)C(=O)N[C@H](CCCCN)C(=O)N[C@H](CCC(N)=O)C(=O)N[C@H](CCCCN)C(=O)N2CCC[C@@H]2C(=O)N[C@H](CC(=O)O)C(=O)N[C@H](CC(C)C)C(=O)N1)C(C)C)C(=O)O` [Example 150, c(D-Cys-D-Gln-D-Ile-D-Trp-D-Lys-D-Gln-D-Lys-D-Pro-D-Asp-D-Leu-D-Cys)-D-Val-D-Glu-Lys(Nε-octanoyl)-OH] (H-[dC][dQ][dI][dW][dK][dQ][dK][dP][dD][dL][dC][dV][dE]K(Octanoyl)-OH; disulfide 1-11) were, in that order, 100.5% and 7.48.
The like results for `CC[C@H](C)[C@@H]1NC(=O)[C@H](Cc2c[nH]c3ccccc23)NC(=O)[C@H](CCCCN)NC(=O)[C@H](CCC(N)=O)NC(=O)[C@H](CCCCN)NC(=O)[C@@H](NC(=O)[C@@H]2CCCN2C(=O)[C@H](CC(=O)O)NC(=O)[C@@H](N)CC(C)C)CSSC[C@@H](C(N)=O)NC(=O)[C@H](CCC(N)=O)NC1=O` [Example 38, Leu-Asp-Pro-c(Cys-Lys-Gln-Lys-Trp-Ile-Gln-Cys)-NH2] (H-LDPCKQKWIQC-NH2; disulfide 4-11) were, in that order, −12% and < 6.00.
